Source: PubChem BioAssay AID2060504 (Molecular Pharmacology Branch, DTP, NCI, 2025)
Several values for one entry are separate records, joined by “and”; a condition that tells them apart may be missing. Equal entries are not always repeated.

System: 636577-100-R-J1-PDC complex spheroid viability
Experiment: Anticancer human tumor 636577-100-R-J1-PDC patient-derived endometrial adenocarcinoma cell line growth inhibition [GQUAD]
Details: for viability, T/C: stronger effect = lower value; for IC50: curve of compound
Source text: DNA G-quadruplex Stabilizer Agents in Combinations in Complex Spheroids
A high-throughput screen of multi-cell type tumor spheroids was designed to identify active combinations of DNA G-quadruplex stabilizer agents and targeted small molecules. Complex spheroids include a stromal component modeled by human endothelial cells (HUVEC) and fibroblasts modeled by human mesenchymal stem cells (MSCs). The concentration ranges selected for each drug and investigational agent were based upon clinically achievable concentrations if the clinical Cmax of the agent was known.
Compounds. The drugs and investigational agents: pidnarulex (CX-5461; NSC782164), APTO-253 (NSC789042), BRACO-19 (NSC847499), peposertib (NSC802822), ceralasertib (NSC780249), elimusertib (NSC800525), camonsertib (NSC841442), AZD-1390 (NSC803789), olaparib (NSC753686), talazoparib (NSC767125), ART-558 (NSC835418), sotorasib (NSC818433), MRTX-1133 (NSC836407), SN-38 (NSC673596), topotecan (NSC609699), etoposide (NSC141540), doxorubicin (NSC123127), gemcitabine (NSC613327), 5-fluorouracil (NSC19893), paclitaxel (NSC125973), vemurafenib (NSC761431), panobinostat (NSC761190), R-306465 (JNJ-16241199; NSC773264), adavosertib (NSC754352), TP-3654 (NSC805149), carboplatin (NSC241240), KSQ-4279 (NSC840948), and staurosporine (NSC755774) were obtained from the National Cancer Institute (NCI) Developmental Therapeutics Program Chemical Repository (34). The FDA-approved anticancer drug set is available from the NCI Developmental Therapeutics Program. […] The stock solutions were prepared in dimethyl sulfoxide (DMSO, Sigma-Aldrich, St. Louis, MO, cat. D2650) at 800-fold the tested concentration and stored at -70 degrees C prior to their use. All drugs and investigational agents were tested over a range starting from a high concentration at or near the clinical Cmax and decreasing in half-log increments. If the clinical Cmax for an agent had not been determined, the highest concentration tested was 10 microM.
2.3 Cell Culture. All cells were maintained in an incubator at 37 degrees C and 5% CO2 with 95% humidity. The PDC lines were cultured according to standard operating procedures established by the NCI PDMR. All PDCs were thawed and cultured in Matrigel-coated flasks prepared with a working solution of 1X Ham's F-12 nutrient mix, without supplementation (Invitrogen, cat. 11765054), 100 U/mL penicillin-streptomycin (Invitrogen, cat. 15140122), and 2.5% Matrigel (Corning Inc., cat. 354248) for the first three passages. The 857933-349-R-J2-PDC line was cultured in 6C/Colon 1B media, which includes advanced DMEM/F-12 (Thermo Fisher Scientific, cat. 12634028), 10 mM HEPES (Thermo Fisher Scientific, cat. 15630080), 1X GlutaMAX supplement (Thermo Fisher Scientific, cat. 35050061), 0.1 mg/mL primocin (InvivoGen, cat. ant-pm-2), 10% defined fetal bovine serum, heat inactivated (HyClone Laboratories Inc., cat. SH30070.03HI), 50% L-WRN conditioned media (ATCC, cat. CRL-3276), 1.25 mM N-Acetyl-L-cysteine (Sigma-Aldrich, cat. A9165), 10 mM nicotinamide (Sigma-Aldrich, cat. N0636), 1X B-27 supplement (Thermo Fisher Scientific, cat. 17504044), 1X N-2 supplement (Thermo Fisher Scientific, cat. 17502048), 10 microM Y-27632 dihydrochloride (Tocris Bioscience, cat. 1254), and 50 ng/mL human EGF recombinant protein (Thermo Fisher Scientific, cat. PHG0311). The 485176-168-R4-J1-PDC line was cultured in Panc media, which includes all 6C/Colon 1B media components plus 100 ng/mL human FGF-10 (Thermo Fisher Scientific, cat. 100-26), 500 nM SB-431542 (Selleckchem, cat. S1067), and gastrin (Tocris, cat. 3006).
[…]
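Further: viability read after seven days of drug exposure.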
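Wherever viability, T/C is given: luminescence signal used as a proxy for viable cells; 100% = DMSO vehicle control wells.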

In the case of `COc1cccc2c1C(=O)c1c(O)c3c(c(O)c1C2=O)CC(O)(C(=O)CO)CC3OC1CC(N)C(O)C(C)O1` (stereo unspecified), the viability, T/C (compound 0.0316 µM) is reported as 28.9% and 27% and 34.2%, the viability, T/C (compound 0.1 µM) is reported as 18.4% and 18.1% and 16.8% and the viability, T/C (compound 0.316 µM) is reported as 15.4% and 13.9% and 14.7%. For the same molecule, the viability, T/C (compound 1 µM) was 7.51% and 9.99% and 11.6%, the viability, T/C (compound 3.16 µM) was 0.17% and 0.21% and 0.44% and the viability, T/C (compound 10 µM) was 0.53% and 0.32% and 0.4%. For the same molecule, the IC50 was under 31.6 nM.

For `O=C(c1cc(Cc2n[nH]c(=O)c3ccccc23)ccc1F)N1CCN(C(=O)C2CC2)CC1`, the viability, T/C (compound 0.0316 µM) was 91.1% and 68.5%, the viability, T/C (compound 0.1 µM) was 89.5% and 65.9% and the viability, T/C (compound 0.316 µM) was 96.8% and 82.5%. The viability, T/C (compound 1 µM) was 62.5% and 63.3%, the viability, T/C (compound 3.16 µM) was 56.2% and 45.9% and the viability, T/C (compound 10 µM) was 37.6% and 29%. For the same molecule, the IC50 was 2510 nM and 2430 nM.

`Cc1cnc(CNC(=O)c2c(=O)c3ccc(N4CCCN(C)CC4)nc3n3c2sc2ccccc23)cn1` was tested, and the viability, T/C (compound 0.0316 µM) was 50.9% [middle of 10 runs], the viability, T/C (compound 0.1 µM) was 29.8% [middle of 10 runs] and the viability, T/C (compound 0.316 µM) was 26.9% [middle of 10 runs]. For the same molecule, the viability, T/C (compound 1 µM) was 24.9% [middle of 10 runs], the viability, T/C (compound 3.16 µM) was 22.2% [middle of 10 runs] and the viability, T/C (compound 10 µM) was 20.8% [middle of 10 runs].

`CCc1c2c(nc3ccc(O)cc13)-c1cc3c(c(=O)n1C2)COC(=O)[C@]3(O)CC` showed a viability, T/C (compound 0.000999 µM) of 46.6%, a viability, T/C (compound 0.00316 µM) of 22.1% and a viability, T/C (compound 0.00999 µM) of 23.3%. The viability, T/C (compound 0.0316 µM) was 22.9%, the viability, T/C (compound 0.0999 µM) was 19.6% and the viability, T/C (compound 0.316 µM) was 10.7%. It also gave an IC50 of under 0.999 nM.

In the case of `Cn1ncnc1[C@H]1c2n[nH]c(=O)c3cc(F)cc(c23)N[C@@H]1c1ccc(F)cc1`, the viability, T/C (compound 0.000999 µM) is reported as 116% and 71.8% and 77.3%, the viability, T/C (compound 0.00316 µM) is reported as 99% and 81.1% and 72.7% and the viability, T/C (compound 0.00999 µM) is reported as 94.9% and 91.4% and 85.6%. The viability, T/C (compound 0.0316 µM) was 69.3% and 56% and 68.8%, the viability, T/C (compound 0.0999 µM) was 44.9% and 52.2% and 43.4% and the viability, T/C (compound 0.316 µM) was 29.7% and 35.6% and 29.1%. For the same molecule, the IC50 was 83.4 nM and 55.7 nM and 74.1 nM.

For `CC1COCCN1c1cc(C2(O)CC3CCC(C2)O3)c2cnn(-c3ccn[nH]3)c2n1` (stereo unspecified), the viability, T/C (compound 0.0316 µM) was 45.5% and 69.8% and 52.9%, the viability, T/C (compound 0.1 µM) was 36.3% and 25.4% and 31.3% and the viability, T/C (compound 0.316 µM) was 18.9% and 15.5% and 18%. The viability, T/C (compound 1 µM) was 8.03% and 6.74% and 6.72%, the viability, T/C (compound 3.16 µM) was 3.6% and 2.83% and 2.96% and the viability, T/C (compound 10 µM) was 1.1% and 0.71% and 1.08%. The IC50 was < 31.6 nM and 54.1 nM and 36.7 nM.
